Experimental data from patent publication US6461997B1, “Triazole sulfones having herbicidal activity” (Monsanto Technology LLC, priority 1999, dated 2002).

Experiments:
AMARE (redroot pigweed) = experiment: Pre-emergence herbicidal activity, warm season; format: in vivo, Amaranthus retroflexus; conditions: GR80 = lowest tested rate (300, 100, 30, 10 g/ha) with 80% or greater inhibition; approx. 14 days after treating; 30/21° C.
Outline: (§1)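 GR80 values derive from percent inhibition relative to untreated plants, read roughly 14 days after sowing and pre-emergence soil-surface treatment (compound in 50:50 acetone/water; rates typically 10, 30, 100, 300 g/ha). Warm-season weeds grew at 30/21° C day/night, cool-season ones at 18/13° C; an asterisk marks activity without reaching 80% at the highest rate.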

POROL (common purslane) = experiment: Pre-emergence herbicidal activity, warm season; format: in vivo, Portulaca oleracea; conditions: GR80 = lowest tested rate (300, 100, 30, 10 g/ha) with 80% or greater inhibition; approx. 14 days after treating; 30/21° C.
Outline: as §1

[1] = test system: PANMI (wild proso millet); experiment: Pre-emergence herbicidal activity, warm season; format: in vivo, Panicum miliaceum; conditions: GR80 = lowest tested rate (300, 100, 30, 10 g/ha) with 80% or greater inhibition; approx. 14 days after treating; 30/21° C.
Outline: (§2)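 Under 18/13 °C (ALOMY, POLCO) or 30/21 °C (PANMI, DIGSA) day/night, pre-emergence soil-surface treatments at 300, 100, 30 and 10 g/ha were evaluated after roughly 14 days. GR80 reflects percent inhibition relative to untreated plants.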

[2] = test system: BRAPP (broadleaf signalgrass); experiment: Pre-emergence herbicidal activity, warm season; format: in vivo, Brachiaria platyphylla; conditions: GR80 = lowest tested rate (300, 100, 30, 10 g/ha) with 80% or greater inhibition; approx. 14 days after treating; 30/21° C.
Outline: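 Activity is expressed as the rate giving 80% inhibition, with 300, 100, 30 and 10 g/ha typically tested. An asterisk marks activity short of 80% at the top rate. Warm-season grasses were held at 30/21 °C; cool-season blackgrass and wild buckwheat at 18/13 °C; scoring at about 14 days.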

DIGSA (large crabgrass) [3] = experiment: Pre-emergence herbicidal activity, warm season; format: in vivo, Digitaria sanguinalis; conditions: GR80 = lowest tested rate (300, 100, 30, 10 g/ha) with 80% or greater inhibition; approx. 14 days after treating; 30/21° C.
Outline: as §2

SETVI (green foxtail) = experiment: Pre-emergence herbicidal activity, cool season; format: in vivo, Setaria viridis; conditions: GR80 = lowest tested rate (300, 100, 30, 10 g/ha) with 80% or greater inhibition; approx. 14 days after treating; 18/13° C.
Outline: as §1

[4] = test system: AGSST (creeping bentgrass); experiment: Pre-emergence herbicidal activity, cool season; format: in vivo, Agrostis stolonifera; conditions: GR80 = lowest tested rate (300, 100, 30, 10 g/ha) with 80% or greater inhibition; approx. 14 days after treating; 18/13° C.
Outline: as §1

DIGSA (large crabgrass) [5] = experiment: Pre-plant incorporated (PPI) herbicidal activity, warm season; format: in vivo, Digitaria sanguinalis; conditions: PPI application
Experimental: (§3) In another set of tests, the pre-plant incorporated (PPI) activity of compounds of this invention was evaluated on the same species as for the pre-emergence tests described above. In the PPI tests the following procedure, designed to simulate PPI application, was used.
(§4) A pre-prepared topsoil mixture (described above) was placed in a pot and compacted to a depth of 1.0 to 1.25 cm from the top of the pot. Seeds of each of several monocotyledonous and dicotyledonous annual plant species were placed on top of the soil. A sufficient quantity of soil to cover the seeds and level fill the pot was weighed into an open container. A known amount of the test compound was dissolved or suspended in an organic solvent and applied by spraying to this cover soil. The cover soil was thoroughly mixed to distribute the test compound throughout the cover soil, and was then applied as a cover layer over the seeds. Untreated soil was used as a cover layer for control pots. After treatment the plants were placed in a greenhouse where they received 0.64 cm of overhead irrigation. All subsequent watering consisted of a light overhead mist and/or subirrigation as needed for germination and growth. Tables 9 and 10 below relate to warm season plant species which were placed after pre-emergence treatment in a greenhouse with a 30/21° C. day/night temperature regime. Tables 11 and 12 below relates to cool season plant species placed after pre-emergence treatment in a greenhouse or growth chamber with an 18/13° C. day/night temperature regime. Only the compounds of Examples 1, 6, 8, 11, 13 and 15-20 were included in PPI tests.
(§5) Approximately 14 days after planting and treating, the plants were observed and herbicidal efficacy recorded as percent inhibition by comparison with untreated plants.

[6] = test system: GALAP (catchweed bedstraw); experiment: Pre-plant incorporated (PPI) herbicidal activity, cool season; format: in vivo, Galium aparine; conditions: weed, PPI application
Experimental: as §3, §4, §5

LOLMG (annual ryegrass) = experiment: as above; format: in vivo, Lolium multiflorum; conditions: weed, PPI application
Experimental: as §3, §4, §5

[7] = test system: AEGCY (jointed goatgrass); experiment: as above; format: in vivo, Aegilops cylindrica; conditions: weed, PPI application
Experimental: as §3, §4, §5

[8] = test system: AGRRE (quackgrass (seedling)); experiment: as above; format: in vivo, Elymus repens; conditions: weed, PPI application
Experimental: as §3, §4, §5

POAAN (annual bluegrass) = experiment: as above; format: in vivo, Poa annua; conditions: weed, PPI application
Experimental: as §3, §4, §5

SMILES | Pre-emergence activity (GR80) AMARE (AMARE (redroot pigweed)) | Pre-emergence activity (GR80) POROL (POROL (common purslane)) | Pre-emergence activity (GR80) PANMI [1] | Pre-emergence activity (GR80) BRAPP [2] | Pre-emergence activity (GR80) DIGSA (DIGSA (large crabgrass) [3]) | Pre-emergence activity (GR80) SETVI (SETVI (green foxtail)) | Pre-emergence activity (GR80) AGSST [4] | Percent inhibition DIGSA (DIGSA (large crabgrass) [5]; 30 g/ha) | Percent inhibition DIGSA (DIGSA (large crabgrass) [5]; 100 g/ha) | Percent inhibition DIGSA (DIGSA (large crabgrass) [5]; 300 g/ha) | Percent inhibition DIGSA (DIGSA (large crabgrass) [5]; 900 g/ha) | Percent inhibition GALAP ([6]; 30 g/ha) | Percent inhibition GALAP ([6]; 100 g/ha) | Percent inhibition GALAP ([6]; 300 g/ha) | Percent inhibition GALAP ([6]; 900 g/ha) | Percent inhibition LOLMG (LOLMG (annual ryegrass); 30 g/ha) | Percent inhibition LOLMG (LOLMG (annual ryegrass); 100 g/ha) | Percent inhibition LOLMG (LOLMG (annual ryegrass); 300 g/ha) | Percent inhibition LOLMG (LOLMG (annual ryegrass); 900 g/ha) | Percent inhibition AEGCY ([7]; 30 g/ha) | also measured
CCN(CC)C(=O)n1cnc(S(=O)(=O)C(F)(F)Cl)n1 [Example 3] | 100 g/ha | 100 g/ha | 30 g/ha | 100 g/ha | 100 g/ha | 100 g/ha | 30 g/ha | 70% | 100% | 100% | 100% | 100% | 100% | 100% | 100% | 40% | 100% | 100% | 100% | 0% | Percent inhibition AEGCY ([7]; 100 g/ha): 50%; Percent inhibition AEGCY ([7]; 300 g/ha): 40%; Percent inhibition AEGCY ([7]; 900 g/ha): 90%; Percent inhibition AGRRE ([8]; 30 g/ha): 20%; Percent inhibition AGRRE ([8]; 100 g/ha): 50%; Percent inhibition AGRRE ([8]; 300 g/ha): 80%; Percent inhibition AGRRE ([8]; 900 g/ha): 95%; Percent inhibition POAAN (POAAN (annual bluegrass); 30 g/ha): 70%; Percent inhibition POAAN (POAAN (annual bluegrass); 100 g/ha): 100%; Percent inhibition POAAN (POAAN (annual bluegrass); 300 g/ha): 100%; Percent inhibition POAAN (POAAN (annual bluegrass); 900 g/ha): 100%
CCN(CC)C(=O)n1cnc(S(=O)(=O)C(F)(F)SC)n1 [Example 9] | 300 g/ha | 300 g/ha | 100 g/ha | 300 g/ha | 100 g/ha | 100 g/ha | 30 g/ha | 95% | 100% | 100% | 100% | 100% | 70% | 100% | 100% | 60% | 100% | 100% | 100% | 0% | Percent inhibition AEGCY ([7]; 100 g/ha): 20%; Percent inhibition AEGCY ([7]; 300 g/ha): 30%; Percent inhibition AEGCY ([7]; 900 g/ha): 40%; Percent inhibition AGRRE ([8]; 30 g/ha): 0%; Percent inhibition AGRRE ([8]; 100 g/ha): 70%; Percent inhibition AGRRE ([8]; 300 g/ha): 80%; Percent inhibition AGRRE ([8]; 900 g/ha): 100%; Percent inhibition POAAN (POAAN (annual bluegrass); 30 g/ha): 90%; Percent inhibition POAAN (POAAN (annual bluegrass); 100 g/ha): 100%; Percent inhibition POAAN (POAAN (annual bluegrass); 300 g/ha): 100%; Percent inhibition POAAN (POAAN (annual bluegrass); 900 g/ha): 100%
